According to patent US9000045B2, “CETP activity inhibitors” (Japan Tobacco Inc., priority 1997, dated 2015):
pIC50: −log10 of the molar value.

Experiments:
[1] = molecular target: T1, CETP (Homo sapiens, UniProt P11597); assay: Ex vivo CETP activity inhibitory effect of plasma from transgenic mice; design: from tissue; host or cells: plasma of transgenic mice carrying the human CETP gene; settings: mouse, po, p.o., 6 hours after administration, transgenic mice with human CETP gene, read-out: CETP activity inhibitory rate in plasma from transgenic mouse
T1 sequence (P11597 18-493): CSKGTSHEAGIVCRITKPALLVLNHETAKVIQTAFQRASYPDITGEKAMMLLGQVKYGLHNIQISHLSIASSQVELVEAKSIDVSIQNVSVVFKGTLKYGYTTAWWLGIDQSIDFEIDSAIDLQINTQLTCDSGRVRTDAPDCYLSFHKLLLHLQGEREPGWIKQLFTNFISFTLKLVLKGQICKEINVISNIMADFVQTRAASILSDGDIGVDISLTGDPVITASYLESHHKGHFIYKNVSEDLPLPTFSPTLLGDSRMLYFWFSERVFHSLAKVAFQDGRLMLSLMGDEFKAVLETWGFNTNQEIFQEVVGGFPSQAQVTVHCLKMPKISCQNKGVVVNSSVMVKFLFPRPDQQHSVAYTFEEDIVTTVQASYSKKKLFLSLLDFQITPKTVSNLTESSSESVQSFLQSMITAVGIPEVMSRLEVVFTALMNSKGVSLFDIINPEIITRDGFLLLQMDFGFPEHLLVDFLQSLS
Description: Potassium bromide (KBr) was added to the plasma of healthy subjects (40 ml) to adjust specific gravity to d=1.125 g/ml. Density gradient centrifugation (227,000×g, 4° C., 17 hours) was conducted to obtain a fraction with specific gravity d>1.125 g/ml (HDL3 fraction). The fraction thus obtained was dialyzed against a PBS solution [10 mM Na2HPO4/10 mM NaH2PO4/0.15 M NaCl/1 mM EDTA (pH 7.4)]. Then, tritium-labeled cholesterol (10 nM) (50.3 Ci/mM) was dissolved in 95% ethanol and added gradually to the above HDL3 fraction under stirring. The solution was incubated for 18 hours at 37° C. [Tritium-labeled cholesterol was esterified by this procedure by the action of lecithin:cholesterol acyltransferase (LCAT) present on the surface of HDL3 and taken up into the interior of HDL3 as tritium-labeled cholesterylester ([^3H]CE)]. After incubation, KBr was added and specific gravity was adjusted to d=1.21 g/ml. Density gradient centrifugation (227,000×g, 4° C., 17 hours) was conducted and the fraction with d<1.21 g/ml was harvested. The fraction thus obtained was dialyzed against the above PBS solution to obtain HDL3 that took up [^3H]CE ([^3H]CE-HDL3, specific gravity: 1.125<d<1.21, specific activity: 101,000 dpm/nM), which served as donor lipoprotein.
Physiological saline (specific gravity d=1.006 g/ml) was layered upon the plasma of healthy subjects (100 ml). Density gradient centrifugation (227,000×g, 4° C., 4 hours) was conducted and the fraction with specific gravity d>1.006 g/ml was harvested. KBr was added to the fraction thus obtained to adjust specific gravity to d=1.063 g/ml and density gradient centrifugation (227,000×g, 4° C., 20 hours) was conducted to harvest the fraction with specific gravity […]. The thus-obtained fraction was dialyzed against the above PBS solution to obtain fractions containing IDL and LDL (specific gravity: 1.006<d<1.063), which served as acceptor lipoprotein.
Samples were suspended in a 0.5% methylcellulose solution and administered orally using a plastic probe to transgenic mice having introduced human CETP gene (hereafter referred to as mice; prepared using the method described in Japanese Patent Application No. Hei 8-130660), which had been fasted overnight. Blood was collected before administration, and 6 hours after administration CETP activity in the plasma was determined using the following method.
Donor lipoprotein ([^3H]CE-HDL3, containing 0.21 μg cholesterol) obtained in the above (1), acceptor lipoprotein obtained in the above (2) (containing 21 μg of cholesterol), and 0.9 μl of mice plasma were added to microtubes. A total volume was adjusted to 600 μl/tube with a TBS solution [10 mM Tris/0.15 M NaCl (pH 7.4)]. The microtubes were incubated for 15 hours at 37° C. or 4° C. Then, an ice-cooled TBS solution (400 μl/tube) and a 0.3% dextran sulfate solution (100 μl/tube) containing 0.15 M magnesium chloride were added to the microtubes and mixed well. After allowing the microtubes to stand for 30 minutes at 4° C., centrifugation (8,000 rpm, 4° C., 10 minutes) was carried out and radioactivity of the resulting supernatant (HDL fraction) was determined with a scintillation counter.

[2] = molecular target: T1, CETP; assay: In vitro CETP activity inhibitory effect in whole plasma; format: biochemical; design: Plasma containing [^3H]CE-HDL3 (600,000 dpm/ml) was prepared by adding donor lipoprotein obtained in the above (1) to plasma from healthy subjects; from tissue; host or cells: whole plasma of healthy subjects; settings: plasma from healthy subjects containing [3H]CE-HDL3, incubated 4 hours at 37° C.; read-out: CETP activity inhibition in whole plasma IC50
Description: The fraction thus obtained was dialyzed against a PBS solution [10 mM Na2HPO4/10 mM NaH2PO4/0.15 M NaCl/1 mM EDTA (pH 7.4)]. Then, tritium-labeled cholesterol (10 nM) (50.3 Ci/mM) was dissolved in 95% ethanol and added gradually to the above HDL3 fraction under stirring. The solution was incubated for 18 hours at 37° C. […] After incubation, KBr was added and specific gravity was adjusted to d=1.21 g/ml. […] A sample solution was prepared using a 1:1 solution of N-methylpyrrolidone and polyethyleneglycol 400 as a solvent. […] Based on the inhibition rate (%) of CETP activity, IC50 value of each sample was calculated.

CC(C)CCC1(C(=O)Nc2ccccc2SSc2ccccc2NC(=O)C2(CCC(C)C)CCCCC2)CCCCC1 [Example 8]
inhibition at 100 mg/kg [1]: 25%
pIC50 [2]: 5.52

CC(C)CCC1(C(=O)Nc2ccccc2S)CCCCC1 [Example 11, N-(2-mercaptophenyl)-1-isopentylcyclohexanecarboxamide]
inhibition at 10 mg/kg [1]: 27%
inhibition at 30 mg/kg [1]: 45%
inhibition at 100 mg/kg [1]: 57%
pIC50 [2]: 5.30

CC(C)C1(C(=O)Nc2ccccc2S)CCCCC1 [Example 14]
inhibition at 30 mg/kg [1]: 9%
pIC50 [2]: 5.10

Cc1ccc(S)c(NC(=O)C2(CCC(C)C)CCCCC2)c1 [Example 22]
inhibition at 10 mg/kg [1]: 22%
inhibition at 30 mg/kg [1]: 44%
pIC50 [2]: 4.25

Cc1cccc(NC(=O)C2(CCC(C)C)CCCCC2)c1S [Example 23]
inhibition at 30 mg/kg [1]: 18%

Cc1ccc(NC(=O)C2(CCC(C)C)CCCCC2)c(S)c1 [Example 24]
inhibition at 30 mg/kg [1]: 29%
pIC50 [2]: 4.54

CC(=O)Sc1ccccc1NC(=O)C1(CCC(C)C)CCCCC1 [Example 25, S[2-(1-isopentylcyclohexanecarbonylamino)phenyl]thioacetate]
inhibition at 10 mg/kg [1]: 19%
inhibition at 30 mg/kg [1]: 45%
inhibition at 100 mg/kg [1]: 52%
pIC50 [2]: 4.96

CC(=O)N[C@H](C(=O)Sc1ccccc1NC(=O)C1(CCC(C)C)CCCCC1)C(C)C [Example 25-45]
inhibition at 30 mg/kg [1]: 21%
pIC50 [2]: 4.89

CC(C)CCC1(C(=O)Nc2ccccc2SC(=O)c2ccc([N+](=O)[O-])cc2)CCCCC1 [Example 25-46]
inhibition at 100 mg/kg [1]: 35%
pIC50 [2]: 5.05

CC(C)CCC1(C(=O)Nc2ccccc2SC(=O)c2ccccc2Cl)CCCCC1 [Example 25-49]
inhibition at 30 mg/kg [1]: 16%
pIC50 [2]: 4.68

CC(=O)OC(C)(C)C(=O)Sc1ccccc1NC(=O)C1(CCC(C)C)CCCCC1 [Example 25-52]
inhibition at 10 mg/kg [1]: 19%
inhibition at 30 mg/kg [1]: 40%
pIC50 [2]: 4.17

CC(C)CCC1(C(=O)Nc2ccccc2SC(=O)C2CCN(C)CC2)CCCCC1 [Example 25-53]
inhibition at 30 mg/kg [1]: 26%
pIC50 [2]: 5.15

CC(=O)NC1(C(=O)Sc2ccccc2NC(=O)C2(CCC(C)C)CCCCC2)CCCCC1 [Example 25-56]
inhibition at 30 mg/kg [1]: 24%
pIC50 [2]: 5.15

CSCC[C@H](NC(C)=O)C(=O)Sc1ccccc1NC(=O)C1(CCC(C)C)CCCCC1 [Example 25-57]
inhibition at 10 mg/kg [1]: 18%
inhibition at 30 mg/kg [1]: 46%
pIC50 [2]: 5.15

CC(C)CCC1(C(=O)Nc2ccccc2SC(=O)/C=C/c2ccccc2)CCCCC1 [Example 25-59]
inhibition at 10 mg/kg [1]: 20%
inhibition at 30 mg/kg [1]: 37%
pIC50 [2]: 5.10

CC(C)CCC1(C(=O)Nc2ccccc2SC(=O)Cc2ccccc2)CCCC1 [Example 25-61]
inhibition at 30 mg/kg [1]: 28%
pIC50 [2]: 5.30

COc1ccccc1C(=O)Sc1ccccc1NC(=O)C1(CCC(C)C)CCCC1 [Example 25-63]
inhibition at 100 mg/kg [1]: 25%
pIC50 [2]: 4.68

CC(=O)Sc1cc(Cl)c(Cl)cc1NC(=O)C1(CCC(C)C)CCCCC1 [Example 25-84]
inhibition at 100 mg/kg [1]: 17%
pIC50 [2]: 5.00

CC(C)CCC1(C(=O)Nc2ccccc2SC(=O)NC(C)(C)C)CCCCC1 [Example 25-97]
inhibition at 100 mg/kg [1]: 19%
pIC50 [2]: 5.05

COc1ccc(NC(=O)Sc2ccccc2NC(=O)C2(CCC(C)C)CCCCC2)cc1 [Example 25-100]
inhibition at 30 mg/kg [1]: 25%
pIC50 [2]: 4.80

CC(C)CCC1(C(=O)Nc2ccccc2SC(=O)N(C(=O)Nc2ccccc2)c2ccccc2)CCCCC1 [Example 25-101]
inhibition at 30 mg/kg [1]: 8%
pIC50 [2]: 5.15

CC(C)CCC1(C(=O)Nc2cc(Cl)c(Cl)cc2SC(=O)NC(C)(C)C)CCCCC1 [Example 25-102]
inhibition at 100 mg/kg [1]: 9%
pIC50 [2]: 5.10

CC(C)CCC1(C(=O)Nc2ccccc2SC(=O)NC(C)(C)C)CCCC1 [Example 25-105]
inhibition at 100 mg/kg [1]: 14%
pIC50 [2]: 5.22

CC(C)CCC1(C(=O)Nc2ccccc2SC(=O)Nc2ccccc2)CCCC1 [Example 25-106]
inhibition at 30 mg/kg [1]: 29%
pIC50 [2]: 5.00

COc1ccc(NC(=O)Sc2ccccc2NC(=O)C2(CCC(C)C)CCCC2)cc1 [Example 25-107]
inhibition at 30 mg/kg [1]: 22%
pIC50 [2]: 4.96

CC(C)CCC1(C(=O)Nc2cc(Cl)c(Cl)cc2SC(=O)NC(C)(C)C)CCCC1 [Example 25-108]
inhibition at 100 mg/kg [1]: 8%
pIC50 [2]: 5.15

CCC(CC)CC1(C(=O)Nc2ccccc2SC(=O)C(C)C)CCCCC1 [Example 26, S-[2-[1-(2-ethylbutyl)cyclohexanecarbonylamino]-phenyl]2-methylthiopropionate]
inhibition at 30 mg/kg [1]: 44%
pIC50 [2]: 5.15

CC(C)(C)C(=O)Sc1cc(Cl)c(Cl)cc1NC(=O)C1(CC2CC2)CCCCC1 [Example 70]
pIC50 [2]: 5.40

CC(C)(C)C(=O)Sc1cc(Cl)c(Cl)cc1NC(=O)C1(CC2CCCCC2)CCCCC1 [Example 71]
pIC50 [2]: 5.40

CC(C)CCC1(C(=O)Nc2cc(Cl)c(Cl)cc2SC(=O)C(C)(C)C)CCCCCC1 [Example 72]
pIC50 [2]: 4.13

CC(C)CCC1(C(=O)Nc2cc(Cl)c(Cl)cc2SC(=O)C(C)(C)C)CCC1 [Example 73]
pIC50 [2]: 4.43

COc1ccc(SC(=O)C(C)(C)C)c(NC(=O)C2(CCC(C)C)CCCCC2)c1 [Example 78]
inhibition at 30 mg/kg [1]: 11%

CC(C)CCC1(C(=O)Nc2cc(Cl)c(Cl)cc2SSc2cc(Cl)c(Cl)cc2NC(=O)C2(CCC(C)C)CCCCC2)CCCCC1 [Example 82, bis-[4,5-dichloro-2-(1-isopentylcyclohexane-carbonylamino)phenyl]disulfide]
pIC50 [2]: 5.15

CC(C)CCC1(C(=O)Nc2cc(Cl)c(Cl)cc2SSc2cc(Cl)c(Cl)cc2NC(=O)C2(CCC(C)C)CCCC2)CCCC1 [Example 82-1]
pIC50 [2]: 5.30

CC(C)CCC1(C(=O)Nc2ccccc2SSCC2CCCO2)CCCCC1 (stereo not shown) [Example 83, 2-tetrahydrofurylmethyl 2-(1-isopentylcyclohexane-carbonylamino)phenyl disulfide]
pIC50 [2]: 5.30

CC(C)(C)C(=O)Nc1ccccc1SSc1ccccc1 [Example 84, phenyl 2-pivaloylaminophenyl disulfide]
pIC50 [2]: 3.80
